This passage reports IC50 results from patent US9169260B2 (MERCK SHARP & DOHME CORP., priority 2011, dated 2015).

GST tagged IRAK-4, sequence (Q9NWZ3 whole entry): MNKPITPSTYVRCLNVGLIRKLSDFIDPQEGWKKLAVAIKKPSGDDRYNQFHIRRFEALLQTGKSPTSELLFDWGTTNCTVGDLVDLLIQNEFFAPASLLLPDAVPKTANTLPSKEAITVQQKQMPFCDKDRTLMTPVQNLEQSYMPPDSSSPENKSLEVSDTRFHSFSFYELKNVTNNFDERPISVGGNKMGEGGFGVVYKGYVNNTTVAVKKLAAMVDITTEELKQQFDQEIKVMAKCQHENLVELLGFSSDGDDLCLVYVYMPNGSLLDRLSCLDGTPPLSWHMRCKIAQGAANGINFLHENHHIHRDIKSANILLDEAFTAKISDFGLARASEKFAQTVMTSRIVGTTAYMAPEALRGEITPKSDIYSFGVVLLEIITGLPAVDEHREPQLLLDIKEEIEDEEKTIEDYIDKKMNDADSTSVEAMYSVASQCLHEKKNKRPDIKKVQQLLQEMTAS

The target in the first assay is GST tagged IRAK-4 (Homo sapiens (Human), UniProt Q9NWZ3). Nature of the assay: IRAK-4 Kinase Assay (IMAP fluorescence polarization). Conditions: 100 μM ATP, 30 minutes at 25° C. Type of assay: biochemical. In short, it runs like this:
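Activity was read by IMAP fluorescence polarization, where phosphopeptide binding to M(III) nanoparticles raises FP. The 30-minute, 25° C reaction used 100 μM ATP, 100 nM RP7030 substrate and 0.5 nM GST-IRAK-4 in pH 7.2 Tris buffer with MgCl2, DTT and Tween 20.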
Background: In fluorescence polarisation assays a small probe gives low polarisation when free and higher when bound to something large.
The term IC50 denotes the concentration needed to halve the response being measured. The low end stands for higher potency, the high end for lower potency. In turn, `Cc1ccc(-n2nc(N3CCOCC3)cc2NC(=O)c2cnn3cccnc23)nc1` [Example 202, N-(1-(5-methylpyridin-2-yl)-3-morpholino-1H-pyrazol-5-yl)pyrazolo[1,5-a]pyrimidine-3-carboxamide] showed an IC50 of under 0.1 µM. `Cc1ccc(-n2nc(C3CCN(C4CCCCC4)CC3)cc2NC(=O)c2cnn3cccnc23)cc1` [Example 204, N-[3-(1-cyclohexylpiperidin-4-yl)-1-(4-methylphenyl)-1H-pyrazol-5-yl]pyrazolo[1,5-a]pyrimidine-3-carboxamide] yielded a concentration for half-maximal inhibition (IC50) of under 0.1 µM.

As to `Cc1ccc(-n2nc(C3CCN(C4CCOCC4)CC3)cc2NC(=O)c2cnn3cccnc23)cc1` [Example 206], the half-inhibitory concentration (IC50) was under 0.1 µM.

The molecule `CCC(C)N1CCC(c2cc(NC(=O)c3cnn4cccnc34)n(-c3ccc(C)cc3)n2)CC1` (stereo not shown) [Example 209] returned an IC50 of under 0.1 µM. In turn, `CCCC(C)N1CCC(c2cc(NC(=O)c3cnn4cccnc34)n(-c3ccc(C)cc3)n2)CC1` (stereo not shown) [Example 210] displayed an IC50 of under 0.1 µM. The same measure, in the same setting: under `COCC(C)N1CCC(c2cc(NC(=O)c3cnn4cccnc34)n(-c3ccc(C)cc3)n2)CC1` (stereo not shown) [Example 211, N-(3-(1-(1-methoxypropan-2-yl)piperidin-4-yl)-1-(p-tolyl)-1H-pyrazol-5-yl)pyrazolo[1,5-a]pyrimidine-3-carboxamide] stands under 0.1 µM; under `Cc1ccc(-n2nc(C3CCN(Cc4ccccc4)CC3)cc2NC(=O)c2cnn3cccnc23)cc1` [Example 218, N-[3-(1-benzylpiperidin-4-yl)-1-(4-methylphenyl)-1H-pyrazol-5-yl]pyrazolo[1,5-a]pyrimidine-3-carboxamide], over 0.1 µM. `Cc1ccc(-n2nc(C3CCN(CC(C)C)CC3)cc2NC(=O)c2cnn3cccnc23)cc1` [Example 219, N-{1-(4-methylphenyl)-3-[1-(2-methylpropyl)piperidin-4-yl]-1H-pyrazol-5-yl}pyrazolo[1,5-a]pyrimidine-3-carboxamide] showed an IC50 of under 0.1 µM. On the same count and under the same terms, under `CCCN1CCC(c2cc(NC(=O)c3cnn4cccnc34)n(-c3ccc(C)cc3)n2)CC1` [Example 220, N-[1-(4-methylphenyl)-3-(1-propylpiperidin-4-yl)-1H-pyrazol-5-yl]pyrazolo[1,5-a]pyrimidine-3-carboxamide] stands under 0.1 µM; under `Cc1ccc(-n2nc(C3CCN(CC4CC4)CC3)cc2NC(=O)c2cnn3cccnc23)cc1` [Example 221, N-{3-[1-(cyclopropylmethyl)piperidin-4-yl]-1-(4-methylphenyl)-1H-pyrazol-5-yl}pyrazolo[1,5-a]pyrimidine-3-carboxamide], under 0.1 µM. `Cc1ccc(-n2nc(C3CCN(Cc4ccsc4)CC3)cc2NC(=O)c2cnn3cccnc23)cc1` [Example 223, N-{1-(4-methylphenyl)-3-[1-(thiophen-3-ylmethyl)piperidin-4-yl]-1H-pyrazol-5-yl}pyrazolo[1,5-a]pyrimidine-3-carboxamide] displayed a 50% inhibitory concentration (IC50) of under 0.1 µM. Regarding `Cc1ccc(-n2nc(C3CCN(Cc4ccccn4)CC3)cc2NC(=O)c2cnn3cccnc23)cc1` [Example 226, N-{1-(4-methylphenyl)-3-[1-(pyridin-2-ylmethyl)piperidin-4-yl]-1H-pyrazol-5-yl}pyrazolo[1,5-a]pyrimidine-3-carboxamide], the 50% inhibitory concentration (IC50) was under 0.1 µM. As to `Cc1ccc(-n2nc(C3CCN(CC4CCOC4)CC3)cc2NC(=O)c2cnn3cccnc23)cc1` (stereo not shown) [Example 228, N-{1-(4-methylphenyl)-3-[1-(tetrahydrofuran-3-ylmethyl)piperidin-4-yl]-1H-pyrazol-5-yl}pyrazolo[1,5-a]pyrimidine-3-carboxamide], the IC50 was under 0.1 µM. In the case of `Cc1ccc(-n2nc(C3CCN(Cc4cncs4)CC3)cc2NC(=O)c2cnn3cccnc23)cc1` [Example 229, N-{1-(4-methylphenyl)-3-[1-(1,3-thiazol-5-ylmethyl)piperidin-4-yl]-1H-pyrazol-5-yl}pyrazolo[1,5-a]pyrimidine-3-carboxamide], the IC50 is under 0.1 µM. With `Cc1ccc(-n2nc(C3CCN(Cc4ccn[nH]4)CC3)cc2NC(=O)c2cnn3cccnc23)cc1` [Example 230, N-{1-(4-methylphenyl)-3-[1-(1H-pyrazol-5-ylmethyl)piperidin-4-yl]-1H-pyrazol-5-yl}pyrazolo[1,5-a]pyrimidine-3-carboxamide], the IC50 is under 0.1 µM. `Cc1ccc(-n2nc(C3CCN(Cc4cscn4)CC3)cc2NC(=O)c2cnn3cccnc23)cc1` [Example 231, N-{1-(4-methylphenyl)-3-[1-(1,3-thiazol-4-ylmethyl)piperidin-4-yl]-1H-pyrazol-5-yl}pyrazolo[1,5-a]pyrimidine-3-carboxamide] displayed an IC50 of under 0.1 µM. Regarding `Cc1ccc(-n2nc(C3CCN(Cc4cn[nH]c4)CC3)cc2NC(=O)c2cnn3cccnc23)cc1` [Example 233, N-{1-(4-methylphenyl)-3-[1-(1H-pyrazol-4-ylmethyl)piperidin-4-yl]-1H-pyrazol-5-yl}pyrazolo[1,5-a]pyrimidine-3-carboxamide], the IC50 was under 0.1 µM.

Staying with this assay, now noted: 100 μM ATP, 30 minutes at 25° C.; μM.
Turning to `Cc1ccc(-n2nc(C3CCN(C4CCN(C)CC4)CC3)cc2NC(=O)c2cnn3cccnc23)cc1` [Example 205], the IC50 is over 1 µM. Turning to `Cc1ccc(-n2nc(C3CCN(C(C)c4ncccc4F)CC3)cc2NC(=O)c2cnn3cccnc23)cc1` (stereo not shown) [Example 212, N-(3-(1-(1-(3-fluoropyridin-2-yl)ethyl)piperidin-4-yl)-1-(p-tolyl)-1H-pyrazol-5-yl)pyrazolo[1,5-a]pyrimidine-3-carboxamide], the half-inhibitory concentration (IC50) was under 1 µM. In turn, `Cc1ccc(-n2nc(C3CCN(C(C)c4nccs4)CC3)cc2NC(=O)c2cnn3cccnc23)cc1` (stereo not shown) [Example 217, N-[1-(4-methylphenyl)-3-{1-[1-(1,3-thiazol-2-yl)ethyl]piperidin-4-yl}-1H-pyrazol-5-yl]pyrazolo[1,5-a]pyrimidine-3-carboxamide] yielded an IC50 of under 1 µM. `Cc1ccc(-n2nc(C3CCN(Cc4nccs4)CC3)cc2NC(=O)c2cnn3cccnc23)cc1` [Example 222, N-{1-(4-methylphenyl)-3-[1-(1,3-thiazol-2-ylmethyl)piperidin-4-yl]-1H-pyrazol-5-yl}pyrazolo[1,5-a]pyrimidine-3-carboxamide] gave an IC50 of under 1 µM.

Molecule `Cc1ccc(-n2nc(C3CCN(Cc4ccncc4)CC3)cc2NC(=O)c2cnn3cccnc23)cc1` [Example 224, N-(3-(1-(pyridin-4-ylmethyl)piperidin-4-yl)-1-(p-tolyl)-1H-pyrazol-5-yl)pyrazolo[1,5-a]pyrimidine-3-carboxamide] gave an IC50 of under 1 µM. `Cc1ccc(-n2nc(C3CCN(Cc4cccnc4)CC3)cc2NC(=O)c2cnn3cccnc23)cc1` [Example 225, N-{1-(4-methylphenyl)-3-[1-(pyridin-3-ylmethyl)piperidin-4-yl]-1H-pyrazol-5-yl}pyrazolo[1,5-a]pyrimidine-3-carboxamide] came in with a half-maximal inhibitory concentration (IC50) of under 1 µM. `Cc1ccc(-n2nc(C3CCN(Cc4ncco4)CC3)cc2NC(=O)c2cnn3cccnc23)cc1` [Example 232, N-{1-(4-methylphenyl)-3-[1-(1,3-oxazol-2-ylmethyl)piperidin-4-yl]-1H-pyrazol-5-yl}pyrazolo[1,5-a]pyrimidine-3-carboxamide] displayed an IC50 of under 1 µM. In the case of `Cc1ccc(-n2nc(C3CCN(C4CN(C(=O)NC(C)C)C4)CC3)cc2NC(=O)c2cnn3cccnc23)cc1` [Example 235, N-[3-(1-{1-[(1-methylethyl)carbamoyl]azetidin-3-yl}piperidin-4-yl)-1-(4-methylphenyl)-1H-pyrazol-5-yl]pyrazolo[1,5-a]pyrimidine-3-carboxamide], the half-inhibitory concentration (IC50) is under 1 µM.

Regarding `Cc1ccc(-n2nc(C3CCN(C4CN(C(=O)NC(C)(C)C)C4)CC3)cc2NC(=O)c2cnn3cccnc23)cc1` [Example 236, N-[3-{1-[1-(tert-butylcarbamoyl)azetidin-3-yl]piperidin-4-yl]-1-(4-methylphenyl)-1H-pyrazol-5-yl}pyrazolo[1,5-a]pyrimidine-3-carboxamide], the IC50 is under 1 µM.

Take `CCNC(=O)N1CC(N2CCC(c3cc(NC(=O)c4cnn5cccnc45)n(-c4ccc(C)cc4)n3)CC2)C1` [Example 237, N-[3-{1-[1-(ethylcarbamoyl)azetidin-3-yl]piperidin-4-yl}-1-(4-methylphenyl)-1H-pyrazol-5-yl]pyrazolo[1,5-a]pyrimidine-3-carboxamide]: the IC50 is under 1 µM. The same measure, in the same setting: for `COC(=O)N1CC(N2CCC(c3cc(NC(=O)c4cnn5cccnc45)n(-c4ccc(C)cc4)n3)CC2)C1` [Example 238, methyl 3-(4-{1′-(4-methylphenyl)-5-[(pyrazolo[1,5-a]pyrimidin-3-ylcarbonyl)amino]-1H-pyrazol-3-yl}piperidin-1-yl)azetidine-1-carboxylate] the value was under 1 µM; for `CCOC(=O)N1CC(N2CCC(c3cc(NC(=O)c4cnn5cccnc45)n(-c4ccc(C)cc4)n3)CC2)C1` [Example 239, ethyl 3-(4-{1-(4-methylphenyl)-5-[(pyrazolo[1,5-a]pyrimidin-3-ylcarbonyl)amino]-1H-pyrazol-3-yl}piperidin-1-yl)azetidine-1-carboxylate], under 1 µM. The same measure, in the same setting: for `Cc1ccc(-n2nc(C3CCN(C4CN(C(=O)OC(C)C)C4)CC3)cc2NC(=O)c2cnn3cccnc23)cc1` [Example 240, 1-methylethyl 3-(4-{1-(4-methylphenyl)-5-[(pyrazolo[1,5-a]pyrimidin-3-ylcarbonyl)amino]-1H-pyrazol-3-yl}piperidin-1-yl)azetidine-1-carboxylate] the value was under 1 µM; for `Cc1ccc(-n2nc(C3CCN(C4CN(C(=O)OCCF)C4)CC3)cc2NC(=O)c2cnn3cccnc23)cc1` [Example 241, 2-fluoroethyl 3-(4-{1-(4-methylphenyl)-5-[(pyrazolo[1,5-a]pyrimidin-3-ylcarbonyl)amino]-1H-pyrazol-3-yl}piperidin-1-yl)azetidine-1-carboxylate], under 1 µM.
